# Source: patent publication US10308637B2 (LifeSci Pharmaceuticals, Inc., priority 2015, dated 2019)
# Key:
# human plasma kallikrein = human plasma kallikrein (Homo sapiens (Human), UniProt P03952); assay: In vitro enzyme inhibition of human plasma kallikrein (Pro-Phe-Arg-AMC cleavage); format: biochemical; details: Pro-Phe-Arg-AMC substrate, 37° C., read-out: hPK IC50
# Method: The ability of the compounds disclosed herein to inhibit human plasma kallikrein activity was quantified according to the procedures below.
# A 10 mM solution of the test compound was made in DMSO. […] A control tube containing only DMSO is included. 16 μL of each compound test solution was combined with 384 μL of assay buffer (50 mM Tris-HCl pH 7.5, 150 mM NaCl, 0.01% Triton X-100) to yield a “4× test compound buffer stock”.
# These solutions are hereby referred to as 4×hPK and 2×PFR-AMC, respectively.
# 50 μL was removed from this mixture and placed into duplicate wells on a Microfluor 1Black U-bottom microtiter plate (Thermo Scientific). This plate was incubated for 5 minutes at 37° C. To each well, 50 µL of pre-warmed 2×PFR-AMC was added to start the enzymatic reaction. Cleavage of PFR-AMC was monitored in a Biotek Synergy H4 reader set at 37° C. Readings are taken every 43 seconds for 1 hour. […] The IC50 is calculated using the Gen5 (Biotek Instruments).
# The ability of the compounds in Table 3 to inhibit human plasma kallikrein activity was determined.
# [1] = Contact Assay (percentage inhibition from fluorescence intensity); format: biochemical
# Method: The percentage inhibition was calculated using the following equation:
# [formula] where, Mean(BG) is the average value of the fluorescence intensity of the background wells and Mean(PC) is the average value of the fluorescence intensity of the positive control wells.
# Table 4 provides the EC50 values of various compounds disclosed herein.
# human plasma kallikrein, sequence (P03952 391-638 limits assumed): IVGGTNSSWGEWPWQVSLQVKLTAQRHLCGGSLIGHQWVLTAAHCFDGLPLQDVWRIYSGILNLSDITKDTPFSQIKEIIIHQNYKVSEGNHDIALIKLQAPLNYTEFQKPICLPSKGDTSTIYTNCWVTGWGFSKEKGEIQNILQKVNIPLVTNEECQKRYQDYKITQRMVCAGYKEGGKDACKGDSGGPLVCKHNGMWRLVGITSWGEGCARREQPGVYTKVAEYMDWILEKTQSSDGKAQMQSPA
# human plasma kallikrein, sequence (P03952 20-390 partner limits assumed): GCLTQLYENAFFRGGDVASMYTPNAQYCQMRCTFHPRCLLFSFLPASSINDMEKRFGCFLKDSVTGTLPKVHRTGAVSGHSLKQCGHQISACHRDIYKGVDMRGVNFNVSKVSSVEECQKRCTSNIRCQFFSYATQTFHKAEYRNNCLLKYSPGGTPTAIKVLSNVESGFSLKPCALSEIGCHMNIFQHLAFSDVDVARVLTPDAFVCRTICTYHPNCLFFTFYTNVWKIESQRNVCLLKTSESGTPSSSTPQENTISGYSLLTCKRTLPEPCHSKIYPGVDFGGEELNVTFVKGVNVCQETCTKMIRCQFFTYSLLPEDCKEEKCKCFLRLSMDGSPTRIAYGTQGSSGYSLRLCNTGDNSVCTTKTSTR
Molecule,EC50 [1] [nM],IC50 (human plasma kallikrein) [nM]
"Cc1cc(N)nc(C)c1CNC(=O)c1cc(Cc2ccc3ncc(Cl)cc3c2)nc(C(=O)O)c1 [Example 209, 4-((6-amino-2,4-dimethylpyridin-3-yl)methylcarbamoyl)-6-((3-chloroquinolin-6-yl)methyl)picolinic Acid]",100 to 1000,< 100
"Cc1cc(N)nc(C)c1CNC(=O)c1ccnc(C(C)(O)c2ccc3ncc(Cl)cc3c2)c1 (stereo not drawn) [Example 277, N-((6-amino-2,4-dimethylpyridin-3-yl)methyl)-2-(1-(3-chloroquinolin-6-yl)-1-hydroxyethyl)isonicotinamide]",100 to 1000,
"Cc1nc(N)ccc1CNC(=O)c1ccnc(Cc2ccc3ncc(CC(F)F)cc3c2)c1 [Example 279, N-((6-amino-2-methylpyridin-3-yl)methyl)-2-((3-(2,2-difluoroethyl)quinolin-6-yl)methyl)isonicotinamide]",100 to 1000,
"CCc1cnc2ccc(Cc3cc(C(=O)NCc4ccc5c(N)nccc5c4)ccn3)cc2c1 [Example 283, N-((1-aminoisoquinolin-6-yl)methyl)-2-((3-ethylquinolin-6-yl)methyl)isonicotinamide]",≤ 100,
"CCc1cnc2ccc(Cc3cc(C(=O)NCc4c(C)cc(N)nc4C)ccn3)cc2c1 [Example 286, N-((6-amino-2,4-dimethylpyridin-3-yl)methyl)-2-((3-ethylquinolin-6-yl)methyl)isonicotinamide]",≤ 100,
N-(3-chloro-6-fluoro-1H-indol-5-ylmethyl)-2-(2-cyano-quinolin-6-ylmethyl)-isonicotinamide [Example 130],,< 100

# Second part, led by results:
EC50 [1] [nM],Molecule,IC50 (human plasma kallikrein) [nM]
≤ 100,"Cc1cnc2c(S(N)(=O)=O)cc(Cc3cc(C(=O)NCc4cc5c(Cl)c[nH]c5cc4F)ccn3)cc2c1 [Example 287, N-((3-chloro-6-fluoro-1H-indol-5-yl)methyl)-2-((3-methyl-8-sulfamoylquinolin-6-yl)methyl)isonicotinamide]",
100 to 1000,"Cc1cnc2c(S(N)(=O)=O)cc(Cc3cc(C(=O)NCc4n[nH]c5ccc(Cl)cc45)ccn3)cc2c1 [Example 288, N-((5-chloro-1H-indazol-3-yl)methyl)-2-((3-methyl-8-sulfamoylquinolin-6-yl)methyl)isonicotinamide]",
≤ 100,"Cc1cnc2c(S(N)(=O)=O)cc(Cc3cc(C(=O)NCc4ccc5c(N)nccc5c4)ccn3)cc2c1 [Example 289, N-((1-aminoisoquinolin-6-yl)methyl)-2-((3-methyl-8-sulfamoylquinolin-6-yl)methyl)isonicotinamide]",
100 to 1000,"Cc1cnc2c(S(N)(=O)=O)cc(Cc3cc(C(=O)NCc4ccc5[nH]cc(Cl)c5c4F)ccn3)cc2c1 [Example 290, N-((3-chloro-4-fluoro-1H-indol-5-yl)methyl)-2-((3-methyl-8-sulfamoylquinolin-6-yl)methyl)isonicotinamide]",
≤ 100,"Cc1cnc2c(S(N)(=O)=O)cc(Cc3cc(C(=O)NCc4cnc5[nH]cc(Cl)c5c4)ccn3)cc2c1 [Example 291, N-((3-chloro-1H-pyrrolo[2,3-b]pyridin-5-yl)methyl)-2-((3-methyl-8-sulfamoylquinolin-6-yl)methyl)isonicotinamide]",
